Paper PMC7290078, “Agonist bias and agonist‐dependent antagonism at corticotrophin releasing factor receptors” (Pharmacology Research & Perspectives, 2020)
No end group written: not given here.

What was measured:
CRF2 receptor (hCRF2α) [1] = biological target: T1, CRF2 receptor (hCRF2α) (Homo sapiens, UniProt Q13324); test: ERK1/2 phosphorylation (AlphaLISA Surefire Ultra) in Cos7 cells transfected with hCRF2α; assay type: cell-based
T1 construct: host or cells: Cos7 cells, transient transfection (PEI), pcDNA3.0/3.1 vector
T1 sequence (Q13324 1-411): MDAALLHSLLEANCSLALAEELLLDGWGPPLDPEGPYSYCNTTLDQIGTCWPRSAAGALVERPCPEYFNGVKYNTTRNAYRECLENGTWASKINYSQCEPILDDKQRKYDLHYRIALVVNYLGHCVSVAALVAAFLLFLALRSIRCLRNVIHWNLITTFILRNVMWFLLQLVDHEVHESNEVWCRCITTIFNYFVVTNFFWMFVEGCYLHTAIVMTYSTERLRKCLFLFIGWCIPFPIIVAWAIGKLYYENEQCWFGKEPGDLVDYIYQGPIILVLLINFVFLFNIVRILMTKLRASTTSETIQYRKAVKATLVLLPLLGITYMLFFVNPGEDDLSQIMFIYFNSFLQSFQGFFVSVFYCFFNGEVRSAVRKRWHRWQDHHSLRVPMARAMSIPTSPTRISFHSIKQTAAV
Source text: (§1) Plasmids containing hCRF1α and hCRF2α (GenBank accession numbers AY457172 and AY449734) were obtained from the cDNA Resource Centre (Bloomsburg University) and are referred to as CRF1 and CRF2 in this manuscript. Hemagglutinin (HA) epitope‐tagged human Calcitonin (CT) receptor (CT(a) splice variant) and myc‐tagged human RAMP1 were used as described previously. ^27 HA‐tagged human calcitonin receptor‐like receptor (CLR), N‐terminal FLAG‐tagged human RAMP3 and N‐terminal myc‐tagged human RAMP3 were a gift from Professor David Poyner (Aston University) and Professor Patrick Sexton (Monash University), respectively. N‐terminal FLAG‐tagged human RAMP2 was used as described previously. ^28 All receptors and RAMPs were cloned in pcDNA3.0 or pcDNA3.1 plasmid vectors. All plasmid inserts were sequenced at the Centre for Genomics, Proteomics and Metabolomics (University of Auckland) and the sequences were verified prior to use.
(§2) Cos7, HEK‐293S, and HEK‐293T cells were cultured as described previously. ^28 , ^29 Cos7 cells were originally supplied by the ATCC to Associate Professor Nigel Birch (University of Auckland). HEK‐293S cells were a gift from Professor David Poyner (Aston University) and HEK‐293T cells a gift from Professor John Taylor (University of Auckland). Briefly, all cell lines were cultured in Dulbecco's Modified Eagle Medium (DMEM) supplemented with 8% heat inactivated fetal bovine serum (FBS) and maintained in a humidified incubator at 37°C with 5% CO2. For transfection, cells were counted (Countess CounterTM; Life Technologies) and plated at a density of 20 000 cells per well in 96‐well plates. The cells were transiently transfected 48 hours prior to assaying using polyethylenimine (PEI), as described previously. ^28 , ^29 In all experiments a total of 0.25 μg DNA was transfected per well. In the majority of experiments 0.25 μg DNA of receptor‐containing plasmid or the pcDNA3.1 plasmid without an insert was used. For experiments involving RAMPs, 0.125 μg of receptor DNA and 0.125 μg of RAMP‐containing plasmid DNA were transfected to give a 1:1 ratio of receptor to RAMP. Where the RAMP or receptor were transfected alone, the ratio of DNA was made up with the pcDNA3.1 plasmid.
The AlphaLISA Surefire Ultra extracellular signal‐regulated kinase 1/2 (ERK1/2) phosphorylation (pERK1/2) assay kit (PerkinElmer Life and Analytical Sciences) was used to measure pERK1/2 in cell lysates after agonist stimulation. For these assays 20% FBS was used as a positive control. Following peptide stimulation at 37°C for 0‐30 minutes with 100 nmol/L agonist (time courses) or 7 minutes with media alone or 1 pmol/L to 1 µmol/L agonist, media was removed and 20 µL of lysis buffer added to each well. Plates were shaken at room temperature for 10 minutes. Each sample was then transferred to a 384‐well optiplate and pERK1/2 measurement performed as per the manufacturer's instructions. Samples were read using an Envision plate reader (PerkinElmer).
In all experiments the position of peptides and antagonists (pharmacology) or transfected receptors (ELISAs) on assay plates was randomized during each independent experiment, which are independent biological replicates. In all cases, duplicate, triplicate, or quadruplicate technical replicates were conducted for each independent experiment. For transfected cell experiments, each independent experiment involved plating cells from a distinct passage, separate transient transfection and separate signaling or ELISA assays, constituting experimental n. For ERK1/2 and IP1 signaling pathways, time‐course experiments were first conducted with a saturating concentration of UCN1 to determine the optimal time to conduct concentration‐response experiments. Concentration‐response experiments were then conducted with the same experimental design for cAMP, ERK1/2, and IP1 pathways. […] All group sizes were designed to be equal at n = 5 independent experiments.

CRF2 receptor (hCRF2α) [2] = biological target: T1, CRF2 receptor (hCRF2α); test: IP1 accumulation (IP-one Gq) in Cos7 cells transfected with hCRF2α, agonist stimulation; assay type: cell-based
Source text: as §1, §2
The IP‐one Gq assay kit (Cisbio) was used to quantify accumulated myo‐inositol‐1‐phosphate (IP1), a by‐product of IP3 produced after receptor‐mediated Gαq activation in Cos7 and HEK‐293S cells. Briefly, culture media was removed and replaced with DMEM containing 0.1% BSA for 30 minutes at 37°C. Cells were then incubated with media containing 50 mmol/L lithium chloride (LiCl) for an additional 0‐120 minutes (time courses) or 90 minutes at 37°C in the presence or absence of an antagonist. Agonist concentrations of 1 pmol/L to 10 µmol/L were used for agonist only assays or 10 pmol/L to 10 µmol/L concentrations for antagonist experiments. After cell stimulation, 14 µL of stimulation buffer was added to each well. Three microlitres of each detection antibody were added in turn to the plate and incubated at room temperature for 1 hour. Fifteen microliters of sample was then transferred to a 384‐well optiplate and read by an Envision plate reader (PerkinElmer). IP1 concentrations were calculated from a standard curve generated in duplicate.
In all experiments the position of peptides and antagonists (pharmacology) or transfected receptors (ELISAs) on assay plates was randomized during each independent experiment, which are independent biological replicates. […]

| EC50 (CRF2 receptor (hCRF2α) [1]; pERK1/2, hCRF2α, Cos7, 7 min at 37°C, 1 pmol/L to 1 µmol/L agonist, mean ± SEM, n = 5) [nM] | EC50 (CRF2 receptor (hCRF2α) [2]; IP1, hCRF2α, Cos7, 90 min at 37°C, 50 mmol/L LiCl, 1 pmol/L to 10 µmol/L agonist, mean ± SEM, n = 5) [nM] | ability to produce pERK1/2, comparison of peptides (CRF2 receptor (hCRF2α) [1]; CRF2 receptor) | concentration‐dependent increase in pERK1/2 (CRF2 receptor (hCRF2α) [1]; CRF2 receptor) | Hill slope (CRF2 receptor (hCRF2α) [1]; pERK1/2, CRF2 receptor) | Δlog(τ/K A) (relative efficacy) (CRF2 receptor (hCRF2α) [1]; pERK1/2, hCRF2α, reference agonist UCN1, mean ± SEM, n = 5) | ΔΔlog(τ/K A) (signaling bias) (CRF2 receptor (hCRF2α) [1]; pERK1/2 relative to cAMP, hCRF2α, reference agonist UCN1, mean ± SEM, n = 5) | concentration‐dependent increase in IP1 accumulation (CRF2 receptor (hCRF2α) [2]; CRF2 receptor) | Hill slope (CRF2 receptor (hCRF2α) [2]; IP1, CRF2 receptor) | Δlog(τ/K A) (relative efficacy) (CRF2 receptor (hCRF2α) [2]; IP1, hCRF2α, reference agonist UCN1, mean ± SEM, n = 5) | ΔΔlog(τ/K A) (signaling bias) (CRF2 receptor (hCRF2α) [2]; IP1 relative to cAMP, hCRF2α, reference agonist UCN1, mean ± SEM, n = 5) | Substance |
| --- | --- | --- | --- | --- | --- | --- | --- | --- | --- | --- | --- |
| 5.62 | 4.68 | – | – | – | – | – | – | – | – | – | DNPSLSIDLTFHLLRTLLELARTQSQRERAEQNRIIFDSV-NH2 [UCN1] |
| – | – | no significant difference | concentration‐dependent increases | 0.23 | −0.19 ± 0.42 | 0.36 ± 0.46 | concentration‐dependent increases | not significantly different from one | −1.42 ± 0.13 | −0.87 ± 0.23 | IVLSLDVPIGLLQILLEQARARAAREQATTNARILARVGHC-NH2 (C-terminus assumed) [UCN2] |
